Assay results published in US20240033232A1, “New use of (R)-B2-agonists in treatment of sepsis and acute respiratory distress syndrome” (priority 2021, published 2024).

What was measured:
[1] = system: patients with acute respiratory distress Syndrome (ARDS) caused by sepsis; conditions: cited from earlier work
[2] = system: inducible NO (iNO) and another ROS; assay: Inducible NO, ROS and coagulation disorder induced by LPS sepsis
[3] = system: inflammatory cells, such as WBC, neutrophils and monocytes; assay: Systemic inflammatory cells in sepsis; format: in vivo
[4] = system: tissue of lung, heart or kidney; assay: Pathological examination of organs in sepsis; format: in vivo
[5] = system: macrophages from the peritoneal fluid; assay: LPS induced proliferation and polarization of macrophages from the peritoneal fluid; format: in vivo; conditions: for polarized M1 macrophages or M2 macrophages: in comparison of sepsis condition
[6] = system: sepsis by high doses LPS challenge; assay: LPS sepsis, mortality of mice; format: in vivo; conditions: for survival: high doses LPS challenge; for mortality: high doses LPS challenge (100% mortality without treatment)
[7] = system: sepsis and sepsis related ARDS; assay: Overall effect on sepsis and sepsis related ARDS; conditions: in vivo
[8] = system: INFs, IL-1B, IL-2,4,6,10,12, TNFa and MCP; assay: Cytokine storm in sepsis, production and release of cytokines
NF-κB and MARK pathways = NF-κB and MARK pathways activated by LPS in sepsis
[9] = system: bronchial hyper-responsiveness induced by LPS sepsis; assay: Lung function and bronchial hyper-responsiveness in LPS sepsis; format: in vivo; conditions: for bronchial hyper-responsiveness: induced by LPS sepsis

SMILES: CC(C)(C)NCC(O)c1ccc(O)c(CO)c1 (racemic) [salbutamol]
- ICU mortality and hospital mortality in comparing with placebo [1]: significantly increased
- increase of mortality in comparing with placebo ([1]; salbutamol infusion): 11%

SMILES: CC(C)(C)NC[C@H](O)c1ccc(O)c(CO)c1 [(R)-salbutamol]
- coagulating system disorder such as disseminated intravascular coagulation (DIC) [2]: prevent
- over production of inducible NO (iNO) and another ROS [2]: significantly prevent and inhibit
- increase of inflammatory cells (WBC, neutrophils, monocytes) [3]: significantly inhibite
- pathological changes (inflammatory infiltration, edema, lesions, apoptosis) in lung, heart or kidney [4]: greatly ameliorated and improved
- number of macrophages from the peritoneal fluid ([5]; LPS induced): significantly reduced toward normal level
- polarized M1 macrophages or M2 macrophages [5]: significant reduction
- survival [6]: most of animal survived
- mortality [6]: greatly reduced
- effect on sepsis and sepsis related ARDS [7]: very effective
- production and release of cytokines [8]: significantly reduced

SMILES: CC(C)(C)NC[C@H](O)c1cc(O)cc(O)c1 [(R)-terbutaline]
- coagulating system disorder such as disseminated intravascular coagulation (DIC) [2]: prevent
- over production of inducible NO (iNO) and another ROS [2]: significantly prevent and inhibit
- increase of inflammatory cells (WBC, neutrophils, monocytes) [3]: significantly inhibite
- NF-κB and MARK pathways (expression or phosphorylation) (NF-κB and MARK pathways): significantly inhibited
- pathological changes (inflammatory infiltration, edema, lesions, apoptosis) in lung, heart or kidney [4]: greatly ameliorated and improved
- survival [6]: most of animal survived
- mortality [6]: greatly reduced
- effect on sepsis and sepsis related ARDS [7]: very effective
- production and release of cytokines [8]: significantly reduced
- bronchial hyper-responsiveness [9]: significantly ameliorated
- arterial oxygenation ([9]; sepsis): maintain a normal arterial oxygenation
- deterioration of lung function ([9]; sepsis): prevent or restored the deterioration

SMILES: CC(C)(C)NC[C@@H](O)c1ccc(O)c(CO)c1 [(S)-salbutamol]
- pathological changes (inflammatory infiltration, edema, lesions, apoptosis) in lung, heart or kidney [4]: further worsened
- effect on sepsis and sepsis related ARDS [7]: increase the risk of sepsis or worsen sepsis

SMILES: OCc1cc([C@H](O)CNCCCCCCOCCCCc2ccccc2)ccc1O [(S)-salmeterol]
- polarized M1 macrophages or M2 macrophages [5]: further increased

SMILES: CC(C)(C)NC[C@@H](O)c1cc(O)cc(O)c1 [(S)-terbutaline]
- increase of inflammatory cells (WBC, neutrophils, monocytes) [3]: further increased
- NF-κB and MARK pathways (expression or phosphorylation) (NF-κB and MARK pathways): further enhanced
- pathological changes (inflammatory infiltration, edema, lesions, apoptosis) in lung, heart or kidney [4]: further worsened
- effect on sepsis and sepsis related ARDS [7]: increase the risk of sepsis or worsen sepsis
- bronchial hyper-responsiveness [9]: further worsened
